In US20250296971A1, “GASTRIC INHIBITORY PEPTIDE RECEPTOR LIGANDS” (priority 2021, published 2025):
*1 amine or outer side, *2 acyl side, *3 side chain or, on linkers, in order; H or OH if unused. Where a SMILES comes first, the peptide text is derived from it. Bridges are numbered along the chain shown (N, C = ends). [ ]: non-standard residue; d: D form. The star is where a group is joined. X5 = NC(=O)[C@H](CCCCNC(=O)CN1CCN(CC(=O)O)CCN(CC(=O)O)CCN(CC(=O)O)CC1)NC(=O)CCC(=O)NCCCOCCOCCOCCCN*; X3 = O=C(O)CN1CCN(CC(=O)O)CCN(CC(=O)NCCCOCCOCCOCCCN*)CCN(CC(=O)O)CC1; DOTA = O=C(O)CN1CCN(CC(=O)O)CCN(CC(=O)*)CCN(CC(=O)O)CC1; Propanoyl(3-(1-naphthyl)) = O=C(CCc1cccc2ccccc12)*; Trp(5-Cl) = N[C@@H](Cc1c[nH]c2ccc(Cl)cc12)C(=O)O; Trp(6-Cl) = N[C@@H](Cc1c[nH]c2cc(Cl)ccc12)C(=O)O; Trp(6-F) = N[C@@H](Cc1c[nH]c2cc(F)ccc12)C(=O)O; Propanoyl(3-(4-Cl-Ph)) = O=C(CCc1ccc(Cl)cc1)*; mXylylene = c1cc(C[*:1])cc(C[*:2])c1; X6 = c1cc(CSCCN[*:2])nc(C[*:1])c1; X7 = c1cc(CSCCN[*:2])cc(C[*:1])c1; Hyp = O=C(O)[C@@H]1C[C@@H](O)CN1; X1 = O=C(CN1CCC(N[*:1])CC1)[*:2]; NMeE = CN[C@@H](CCC(=O)O)C(=O)O; Cha = N[C@@H](CC1CCCCC1)C(=O)O; Suc = O=C(CCC(=O)[*:2])[*:1]; Tle = CC(C)(C)[C@H](N)C(=O)O; X28 = O=C(CCc1ccc2ccccc2c1)*; Thp = NC1(C(=O)O)CCOCC1; Aib = CC(C)(N)C(=O)O

Target: T1, GIPR (CHO-K1-hGIPR cells) (Homo sapiens, UniProt P48546)
T1 construct: host or cells: CHO-K1
T1 sequence (P48546 22-466): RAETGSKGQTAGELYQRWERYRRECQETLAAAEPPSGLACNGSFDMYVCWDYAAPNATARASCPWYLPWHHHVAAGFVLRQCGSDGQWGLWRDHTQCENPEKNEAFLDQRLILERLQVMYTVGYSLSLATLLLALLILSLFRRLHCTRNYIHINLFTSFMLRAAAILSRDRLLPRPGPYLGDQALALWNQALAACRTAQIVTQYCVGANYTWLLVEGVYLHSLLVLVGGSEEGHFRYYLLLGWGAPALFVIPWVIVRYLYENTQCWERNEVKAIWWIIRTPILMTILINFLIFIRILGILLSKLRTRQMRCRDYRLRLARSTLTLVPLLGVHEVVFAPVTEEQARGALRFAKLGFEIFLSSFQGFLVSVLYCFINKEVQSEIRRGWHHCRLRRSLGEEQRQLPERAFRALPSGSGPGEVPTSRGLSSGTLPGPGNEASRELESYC
Test: FACS binding assay
Details: competition with 20 nM GIP-057, 4° C. for 1 hour, read-out: pIC50 Category (converted)
Method in brief: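 Read-out: flow cytometric median fluorescence intensity, APC/Cy5 channel, plotted vs peptide conc.; 4PL fit → EC50/pEC50 or IC50/pIC50. Cells: CHO-K1-hGIPR, Accutase-detached, 500.000/mL in PBS + 1% FCS. Detection: APC-streptavidin 1 μg/mL, 30 min, on ice.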

| Structure (SMILES) | IC50 |
| --- | --- |
| CC[C@H](C)[C@@H]1NC(=O)[C@H](CC(C)C)NC(=O)C(C)(C)NC(=O)[C@@H](NC(=O)[C@H](CC(C)C)NC(=O)[C@H](CCC(=O)O)N(C)C(=O)[C@@H]2CCCN2C(=O)[C@H](Cc2c[nH]c3ccccc23)NC(=O)[C@H](Cc2c[nH]c3ccccc23)NC(=O)[C@H](CC(=O)O)NC(C)=O)CSCc2cccc(c2)CSC[C@@H](C(=O)NCCCOCCOCCOCCCNC(=O)CCC(=O)N[C@@H](CCCCNC(=O)CN2CCN(CC(=O)O)CCN(CC(=O)O)CCN(CC(=O)O)CC2)C(N)=O)NC1=O [GIP-274, Ac-Asp-Trp-Trp-Pro-Nme-Leu-[Cys(3MeBn)-Aib-Leu-Ile-Cys]-Ttds-Lys(DOTA)-NH2] (Ac-DWWP[NMeE]LC[Aib]LIC-X5; linker 7-11 via mXylylene) | 0.1 to 0.794 µM |
| CC[C@H](C)[C@@H]1NC(=O)[C@H](CC(C)C)NC(=O)C(C)(C)NC(=O)[C@@H](NC(=O)[C@@H](NC(=O)[C@H](CCC(=O)O)NC(=O)[C@@H]2CCCN2C(=O)[C@H](Cc2c[nH]c3ccccc23)NC(=O)[C@H](Cc2c[nH]c3ccccc23)NC(=O)[C@H](CC(=O)O)NC(C)=O)C(C)(C)C)CSCc2cccc(c2)CSC[C@@H](C(=O)NCCCOCCOCCOCCCNC(=O)CCC(=O)N[C@@H](CCCCNC(=O)CN2CCN(CC(=O)O)CCN(CC(=O)O)CCN(CC(=O)O)CC2)C(N)=O)NC1=O [GIP-275, Ac-Asp-Trp-Trp-Pro-Glu-Tle-[Cys(3MeBn)-Aib-Leu-Ile-Cys]-Ttds-Lys(DOTA)-NH2] (Ac-DWWPE[Tle]C[Aib]LIC-X5; linker 7-11 via mXylylene) | 0.1 to 0.794 µM |
| CC[C@H](C)[C@@H]1NC(=O)[C@H](C(C)(C)C)NC(=O)C(C)(C)NC(=O)[C@@H](NC(=O)[C@H](CC(C)C)NC(=O)[C@H](CCC(=O)O)NC(=O)[C@@H]2CCCN2C(=O)[C@H](Cc2c[nH]c3ccccc23)NC(=O)[C@H](Cc2c[nH]c3ccccc23)NC(=O)[C@H](CC(=O)O)NC(C)=O)CSCc2cccc(c2)CSC[C@@H](C(=O)NCCCOCCOCCOCCCNC(=O)CCC(=O)N[C@@H](CCCCNC(=O)CN2CCN(CC(=O)O)CCN(CC(=O)O)CCN(CC(=O)O)CC2)C(N)=O)NC1=O [GIP-276, Ac-Asp-Trp-Trp-Pro-Glu-Leu-[Cys(3MeBn)-Aib-Tle-Ile-Cys]-Ttds-Lys(DOTA)-NH2] (Ac-DWWPELC[Aib][Tle]IC-X5; linker 7-11 via mXylylene) | 0.1 to 0.794 µM |
| CC[C@H](C)[C@@H]1NC(=O)[C@H](CC(C)C)NC(=O)C(C)(C)NC(=O)[C@@H](NC(=O)[C@H](CC(C)C)NC(=O)[C@H](CCC(=O)O)NC(=O)[C@@H]2CCCN2C(=O)[C@H](Cc2c[nH]c3ccccc23)NC(=O)[C@H](Cc2c[nH]c3ccc(Cl)cc23)NC(=O)[C@H](CC(=O)O)NC(C)=O)CSCc2cccc(c2)CSC[C@@H](C(=O)NCCCOCCOCCOCCCNC(=O)CCC(=O)N[C@@H](CCCCNC(=O)CN2CCN(CC(=O)O)CCN(CC(=O)O)CCN(CC(=O)O)CC2)C(N)=O)NC1=O [GIP-277, Ac-Asp-5Clw-Trp-Pro-Glu-Leu-[Cys(3MeBn)-Aib-Leu-Ile-Cys]-Ttds-Lys(DOTA)-NH2] (Ac-D[Trp(5-Cl)]WPELC[Aib]LIC-X5; linker 7-11 via mXylylene) | 0.1 to 0.794 µM |
| CC(=O)N[C@@H](CC(=O)O)C(=O)N[C@@H](Cc1c[nH]c2ccccc12)C(=O)N[C@@H](Cc1c[nH]c2ccccc12)C(=O)N1CCC[C@H]1C(=O)N[C@@H](CCC(=O)O)C(=O)N[C@@H](CC(C)C)C(=O)N[C@H]1CSCc2cccc(c2)CSC[C@@H](C(=O)NCCCOCCOCCOCCCNC(=O)CCC(=O)N[C@@H](CCCCNC(=O)CN2CCN(CC(=O)O)CCN(CC(=O)O)CCN(CC(=O)O)CC2)C(N)=O)NC(=O)[C@H](CC2CCCCC2)NC(=O)[C@H](CC(C)C)NC(=O)C(C)(C)NC1=O [GIP-278, Ac-Asp-Trp-Trp-Pro-Glu-Leu-[Cys(3MeBn)-Aib-Leu-Cha-Cys]-Ttds-Lys(DOTA)-NH2] (Ac-DWWPELC[Aib]L[Cha]C-X5; linker 7-11 via mXylylene) | 0.1 to 0.794 µM |
| CC[C@H](C)[C@@H]1NC(=O)[C@H](CC(C)C)NC(=O)C(C)(C)NC(=O)[C@@H](NC(=O)[C@@H](CC(C)C)NC(=O)[C@H](CCC(=O)O)NC(=O)[C@@H]2CCCN2C(=O)[C@H](Cc2c[nH]c3ccccc23)NC(=O)[C@H](Cc2c[nH]c3ccccc23)NC(=O)[C@H](CC(=O)O)NC(=O)CCc2ccc(Cl)cc2)CSCc2cccc(c2)CSC[C@@H](C(=O)NCCCOCCOCCOCCCNC(=O)CCC(=O)N[C@@H](CCCCNC(=O)CN2CCN(CC(=O)O)CCN(CC(=O)O)CCN(CC(=O)O)CC2)C(N)=O)NC1=O [GIP-279, 4ClPhp-Asp-Trp-Trp-Pro-Glu-leu-[Cys(3MeBn)-Aib-Leu-Ile-Cys]-Ttds-Lys(DOTA)-NH2] ({Propanoyl(3-(4-Cl-Ph))}-DWWPE[dL]C[Aib]LIC-X5; linker 7-11 via mXylylene) | 0.1 to 0.794 µM |
| CC[C@H](C)[C@@H]1NC(=O)[C@H](CC(C)C)NC(=O)C(C)(C)NC(=O)[C@@H](NC(=O)[C@@H](CC(C)C)NC(=O)[C@H](CCC(=O)O)NC(=O)[C@@H]2CCCN2C(=O)[C@H](Cc2c[nH]c3ccccc23)NC(=O)[C@H](Cc2c[nH]c3ccccc23)NC(=O)[C@H](CC(=O)O)NC(=O)CCc2cccc3ccccc23)CSCc2cccc(c2)CSC[C@@H](C(=O)NCCCOCCOCCOCCCNC(=O)CCC(=O)N[C@@H](CCCCNC(=O)CN2CCN(CC(=O)O)CCN(CC(=O)O)CCN(CC(=O)O)CC2)C(N)=O)NC1=O [GIP-280, Nph1p-Asp-Trp-Trp-Pro-Glu-leu-[Cys(3MeBn)-Aib-Leu-Ile-Cys]-Ttds-Lys(DOTA)-NH2] ({Propanoyl(3-(1-naphthyl))}-DWWPE[dL]C[Aib]LIC-X5; linker 7-11 via mXylylene) | 0.1 to 0.794 µM |
| CC[C@H](C)[C@@H]1NC(=O)[C@H](CC(C)C)NC(=O)C(C)(C)NC(=O)[C@@H](NC(=O)[C@@H](CC(C)C)NC(=O)[C@H](CCC(=O)O)NC(=O)[C@@H]2CCCN2C(=O)[C@H](Cc2c[nH]c3ccccc23)NC(=O)[C@H](Cc2c[nH]c3ccccc23)NC(=O)[C@H](CC(=O)O)NC(=O)CCc2ccc3ccccc3c2)CSCc2cccc(c2)CSC[C@@H](C(=O)NCCCOCCOCCOCCCNC(=O)CCC(=O)N[C@@H](CCCCNC(=O)CN2CCN(CC(=O)O)CCN(CC(=O)O)CCN(CC(=O)O)CC2)C(N)=O)NC1=O [GIP-281, Nph2p-Asp-Trp-Trp-Pro-Glu-leu-[Cys(3MeBn)-Aib-Leu-Ile-Cys]-Ttds-Lys(DOTA)-NH2] (X28-DWWPE[dL]C[Aib]LIC-X5; linker 7-11 via mXylylene) | 0.1 to 0.794 µM |
| CC[C@H](C)[C@@H]1NC(=O)[C@H](CC(C)C)NC(=O)C(C)(C)NC(=O)[C@@H](NC(=O)[C@@H](CC(C)C)NC(=O)[C@H](CCC(=O)O)NC(=O)[C@@H]2CCCN2C(=O)[C@H](Cc2c[nH]c3cc(Cl)ccc23)NC(=O)[C@H](Cc2c[nH]c3ccccc23)NC(=O)[C@H](CC(=O)O)NC(C)=O)CSCc2cccc(c2)CSC[C@@H](C(=O)NCCCOCCOCCOCCCNC(=O)CCC(=O)N[C@@H](CCCCNC(=O)CN2CCN(CC(=O)O)CCN(CC(=O)O)CCN(CC(=O)O)CC2)C(N)=O)NC1=O [GIP-282, Ac-Asp-Trp-6Clw-Pro-Glu-leu-[Cys(3MeBn)-Aib-Leu-Ile-Cys]-Ttds-Lys(DOTA)-NH2] (Ac-DW[Trp(6-Cl)]PE[dL]C[Aib]LIC-X5; linker 7-11 via mXylylene) | 0.1 to 0.794 µM |
| CC[C@H](C)[C@@H]1NC(=O)[C@H](CC(C)C)NC(=O)C(C)(C)NC(=O)[C@@H](NC(=O)[C@@H](CC(C)C)NC(=O)[C@H](CCC(=O)O)NC(=O)[C@@H]2CCCN2C(=O)[C@H](Cc2c[nH]c3ccccc23)NC(=O)[C@H](Cc2c[nH]c3cc(F)ccc23)NC(=O)[C@H](CC(=O)O)NC(=O)CCC(=O)NCCCOCCOCCOCCCNC(=O)CN2CCN(CC(=O)O)CCN(CC(=O)O)CCN(CC(=O)O)CC2)CSCc2cccc(c2)CSCCNC1=O [GIP-283, DOTA-Ttds-Asp-6Fw-Trp-Pro-Glu-leu-[Cys(3MeBn)-Aib-Leu-Ile-AET]] ({X3-Suc}-D[Trp(6-F)]WPE[dL]C[Aib]LI; linker 7-C via X7) | 0.1 to 0.794 µM |
| CC[C@H](C)[C@@H]1NC(=O)[C@H](CC(C)C)NC(=O)C2(CCOCC2)NC(=O)[C@@H](NC(=O)[C@@H](CC(C)C)NC(=O)[C@H](CCC(=O)O)NC(=O)[C@@H]2C[C@@H](O)CN2C(=O)[C@H](Cc2c[nH]c3ccc(Cl)cc23)NC(=O)CNC(=O)[C@H](CC(=O)O)NC(=O)CN2CCC(NC(=O)CN3CCN(CC(=O)O)CCN(CC(=O)O)CCN(CC(=O)O)CC3)CC2)CSCc2cccc(n2)CSCCNC1=O [GIP-284, DOTA-APAc-Asp-Gly-5Clw-Hyp-Glu-leu-[Cys(2Lut)-Thp-Leu-Ile-AET]] ({DOTA}-[X1]DG[Trp(5-Cl)][Hyp]E[dL]C[Thp]LI; linker 8-C via X6) | 0.1 to 0.794 µM |
| CC[C@H](C)[C@@H]1NC(=O)[C@H](CC(C)C)NC(=O)[C@@H](C)NC(=O)[C@@H](NC(=O)[C@@H](CC(C)C)NC(=O)[C@H](CCC(=O)O)NC(=O)[C@@H]2CCCN2C(=O)[C@H](Cc2c[nH]c3ccccc23)NC(=O)[C@H](Cc2c[nH]c3ccccc23)NC(=O)[C@H](CC(=O)O)NC(=O)CCC(=O)NCCCOCCOCCOCCCNC(=O)CN2CCN(CC(=O)O)CCN(CC(=O)O)CCN(CC(=O)O)CC2)CSCc2cccc(c2)CSC[C@@H](C(=O)O)NC1=O [GIP-285, DOTA-Ttds-Asp-Trp-Trp-Pro-Glu-leu-[Cys(3MeBn)-ala-Leu-Ile-Cys]-OH] ({X3-Suc}-DWWPE[dL]C[dA]LIC-OH; linker 7-11 via mXylylene) | > 1 µM |
